# Measurements from the supplement of paper PMC6045584.
# ± gives the standard deviation of the averaged measurements.
# Experiments:
# PLX-4720 = compound: CCCS(=O)(=O)Nc1ccc(F)c(C(=O)c2c[nH]c3ncc(Cl)cc23)c1F [PLX-4720]; test: surviving fraction relative to DMSO-only wells; higher = less growth inhibition; details: exposure time: 5 days
# Outline: (§1)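 Surviving fraction is CellTiter-Glo luminescence divided by the median of wells given DMSO only. For this, log-phase tumour cell lines went into 384-well plates at 250–500 cells per well and, 24 hours later, into five days of continuous inhibitor exposure at 0.5, 1, 5, 10, 50, 100, 500 and 1000 nM. Lines were screened three times and retained only if replicate Pearson r >0.7 and median Z' >0.3.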
# METHOTREXATE = compound: CN(Cc1cnc2nc(N)nc(N)c2n1)c1ccc(C(=O)N[C@@H](CCC(=O)O)C(=O)O)cc1 [METHOTREXATE]; test: as above; details: exposure time: 5 days
# Outline: as §1
Test System,surviving fraction (PLX-4720; 0.5 nM),surviving fraction (PLX-4720; 1 nM),surviving fraction (PLX-4720; 5 nM),surviving fraction (PLX-4720; 10 nM),surviving fraction (PLX-4720; 50 nM),surviving fraction (PLX-4720; 100 nM),surviving fraction (PLX-4720; 500 nM),surviving fraction (PLX-4720; 1000 nM),surviving fraction (METHOTREXATE; 0.5 nM),surviving fraction (METHOTREXATE; 1 nM),surviving fraction (METHOTREXATE; 5 nM),surviving fraction (METHOTREXATE; 10 nM),surviving fraction (METHOTREXATE; 50 nM),surviving fraction (METHOTREXATE; 100 nM),surviving fraction (METHOTREXATE; 500 nM),surviving fraction (METHOTREXATE; 1000 nM)
HCC1395 BREAST,0.827 ± 0.0092,0.878 ± 0.15,0.82 ± 0.15,0.787 ± 0.06,0.788 ± 0.17,0.888 ± 0.042,0.824 ± 0.08,0.927 ± 0.098,1.18 ± 0.047,1.08 ± 0.073,1.17 ± 0.035,1.17 ± 0.1,1.12 ± 0.058,1.26 ± 0.026,1.03 ± 0.16,1.09 ± 0.062
HCC1806 BREAST,0.727 ± 0.073,0.808 ± 0.067,0.861 ± 0.069,0.879 ± 0.042,0.858 ± 0.09,1.02 ± 0.052,0.855 ± 0.13,0.871 ± 0.076,1.13 ± 0.11,1.11 ± 0.098,0.503 ± 0.063,0.445 ± 0.03,0.263 ± 0.01,0.227 ± 0.017,0.244 ± 0.0074,0.254 ± 0.016
HCC1954 BREAST,0.487 ± 0.0099,0.487 ± 0.028,0.455 ± 0.038,0.452 ± 0.053,0.55 ± 0.029,0.476 ± 0.027,0.466 ± 0.072,0.403 ± 0.0074,1.26 ± 0.04,1.16 ± 0.024,1.42 ± 0.14,1.3 ± 0.18,1.17 ± 0.11,0.997 ± 0.16,1.09 ± 0.13,0.849 ± 0.18
HCT15 LARGE INTESTINE,0.419 ± 0.018,0.875 ± 0.043,0.755 ± 0.072,0.866 ± 0.029,0.513 ± 0.025,0.926 ± 0.046,0.886 ± 0.077,1.03 ± 0.026,1.08 ± 0.046,1.05 ± 0.13,1.04 ± 0.13,0.749 ± 0.18,0.138 ± 0.014,0.102 ± 0.017,0.137 ± 0.019,0.134 ± 0.015
HELA CERVIX,0.96 ± 0.039,0.947 ± 0.051,0.957 ± 0.069,0.953 ± 0.022,1 ± 0.046,1.01 ± 0.025,1 ± 0.055,1.06 ± 0.058,1.06 ± 0.044,1.027 ± 0.0067,1.03 ± 0.039,1.02 ± 0.018,0.712 ± 0.085,0.332 ± 0.018,0.282 ± 0.012,0.288 ± 0.016
HMLE3 BREAST,0.225 ± 0.027,0.8523 ± 0.007,0.721 ± 0.039,0.851 ± 0.049,0.556 ± 0.041,1.03 ± 0.031,1.14 ± 0.036,1.15 ± 0.085,0.98 ± 0.057,1.03 ± 0.13,1.07 ± 0.046,0.985 ± 0.037,0.575 ± 0.051,0.639 ± 0.062,0.522 ± 0.026,0.513 ± 0.037
HMT3552 BREAST,1.04,0.993,1.01,0.978,1.23,1.17,1.11,1.1,1.07 ± 0.063,1 ± 0.036,1.04 ± 0.069,1.03 ± 0.051,0.604 ± 0.06,0.282 ± 0.02,0.182 ± 0.0061,0.171 ± 0.008
HOS BONE,0.92 ± 0.012,0.928 ± 0.014,0.935 ± 0.017,0.964 ± 0.0053,0.992 ± 0.015,0.995 ± 0.0027,0.96 ± 0.0078,1.01 ± 0.019,1.02 ± 0.036,0.999 ± 0.024,0.252 ± 0.018,0.223 ± 0.0095,0.232 ± 0.013,0.226 ± 0.0083,0.218 ± 0.01,0.214 ± 0.018
HOSMNG BONE,0.959 ± 0.026,0.962 ± 0.025,1 ± 0.061,0.985 ± 0.041,0.991 ± 0.16,1.04 ± 0.079,1 ± 0.12,1.03 ± 0.092,0.844 ± 0.14,0.864 ± 0.049,0.84 ± 0.047,0.248 ± 0.019,0.212 ± 0.016,0.316 ± 0.011,0.341 ± 0.015,0.353 ± 0.0087
HS578T BREAST,0.925 ± 0.054,0.912 ± 0.021,0.908 ± 0.1,0.809 ± 0.16,0.978 ± 0.13,0.92 ± 0.055,0.943 ± 0.058,0.789 ± 0.11,1.04 ± 0.19,1.17 ± 0.17,1.19 ± 0.2,1.15 ± 0.058,0.518 ± 0.069,0.438 ± 0.012,0.375 ± 0.011,0.418 ± 0.011
HSSYII SYNOVIAL,0.231 ± 0.018,0.844 ± 0.038,0.694 ± 0.065,0.838 ± 0.03,0.385 ± 0.0033,0.9 ± 0.026,0.827 ± 0.016,0.987 ± 0.046,0.995 ± 0.049,0.996 ± 0.048,1 ± 0.051,0.969 ± 0.029,0.822 ± 0.035,0.834 ± 0.081,0.755 ± 0.045,0.78 ± 0.043
HT1080 SOFT TISSUE,0.981 ± 0.049,0.994 ± 0.073,0.988 ± 0.025,0.989 ± 0.031,1.01 ± 0.038,0.979 ± 0.031,0.934 ± 0.042,0.885 ± 0.033,1.04 ± 0.021,1.06 ± 0.029,1.02 ± 0.04,0.493 ± 0.043,0.253 ± 0.023,0.257 ± 0.0082,0.259 ± 0.0081,0.265 ± 0.03
HU09 BONE,0.863 ± 0.032,0.959 ± 0.13,0.873 ± 0.013,0.941 ± 0.071,1.01 ± 0.07,0.946 ± 0.14,0.898 ± 0.11,1 ± 0.11,1.07 ± 0.17,1 ± 0.055,1.15 ± 0.085,1.06 ± 0.059,0.589 ± 0.031,0.459 ± 0.051,0.335 ± 0.018,0.337 ± 0.043
JIMT1 BREAST,0.857 ± 0.025,0.862 ± 0.042,0.894 ± 0.05,0.887 ± 0.046,0.966 ± 0.067,1.01 ± 0.06,0.947 ± 0.066,0.976 ± 0.037,1.02 ± 0.053,0.999 ± 0.026,0.579 ± 0.035,0.533 ± 0.044,0.305 ± 0.028,0.286 ± 0.029,0.285 ± 0.042,0.295 ± 0.017
JURKAT HAEMATOPOIETIC AND LYMPHOID TISSUE,0.9917 ± 0.0087,0.964 ± 0.02,0.935 ± 0.026,0.972 ± 0.04,0.981 ± 0.026,0.996 ± 0.059,1.03 ± 0.02,1.06 ± 0.016,1.02 ± 0.012,1.02 ± 0.035,1.02 ± 0.03,0.404 ± 0.012,0.036 ± 0.001,0.0293 ± 0.0015,0.0293 ± 0.00058,0.031
KPD BONE,0.917 ± 0.082,0.916 ± 0.017,0.973 ± 0.024,0.982 ± 0.011,1.01 ± 0.075,0.988 ± 0.075,0.932 ± 0.085,0.9813 ± 0.0098,1.06 ± 0.061,1.02 ± 0.043,1.12 ± 0.035,1.09 ± 0.076,1.08 ± 0.087,1.17 ± 0.021,1.02 ± 0.024,1.05 ± 0.047
LM7 BONE,0.725 ± 0.067,0.715 ± 0.026,0.809 ± 0.033,0.825 ± 0.03,0.884 ± 0.066,0.948 ± 0.069,0.871 ± 0.028,0.87 ± 0.031,1.061 ± 0.0066,0.974 ± 0.085,1.13 ± 0.015,1.17 ± 0.06,0.919 ± 0.033,0.885 ± 0.065,0.699 ± 0.042,0.64 ± 0.023
MCF7 BREAST,0.746 ± 0.042,0.873 ± 0.059,0.831 ± 0.033,0.83 ± 0.035,0.83 ± 0.014,0.915 ± 0.022,0.851 ± 0.021,0.899 ± 0.048,0.973 ± 0.011,0.989 ± 0.05,0.734 ± 0.048,0.587 ± 0.033,0.569 ± 0.011,0.588 ± 0.035,0.573 ± 0.039,0.572 ± 0.024
MDAMB134 BREAST,0.624 ± 0.088,0.701 ± 0.076,0.715 ± 0.014,0.78 ± 0.25,0.754 ± 0.09,0.9355 ± 0.0021,0.726 ± 0.076,0.76 ± 0.054,0.929 ± 0.039,0.947 ± 0.04,0.899 ± 0.052,0.848 ± 0.027,1.12 ± 0.21,0.858 ± 0.073,0.75 ± 0.06,0.75 ± 0.011
MDAMB157 BREAST,0.848 ± 0.032,0.962 ± 0.069,0.958 ± 0.079,1 ± 0.093,0.914 ± 0.094,1.01 ± 0.027,0.868 ± 0.082,0.86 ± 0.039,1.02 ± 0.12,0.908 ± 0.012,1.05 ± 0.023,1.02 ± 0.09,0.946 ± 0.01,0.947 ± 0.06,0.839 ± 0.044,0.857 ± 0.076
MDAMB231 BREAST,0.936 ± 0.018,0.964 ± 0.017,0.969 ± 0.024,0.9755 ± 0.0065,1.01 ± 0.031,1.03 ± 0.012,1.01 ± 0.011,1.03 ± 0.038,0.982 ± 0.023,0.967 ± 0.02,0.988 ± 0.026,0.986 ± 0.026,1.02 ± 0.02,1.01 ± 0.044,0.811 ± 0.017,0.509 ± 0.015
